Source: EP4781984A1 (Beyang Therapeutics Co., Ltd., priority 2023, dated 2025)
≈ marks a conversion by molar mass, not a printed value.

Legend:
[1] = Thermodynamic solubility test; type: physicochemical; conditions: buffer solution, aqueous buffer, thermodynamic from solid; thermodynamic solubility, room temperature, 8 hours shaking; buffers pH 2.0, 6.5, 7.4 used, pH of the tabulated value not given
How it was run: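 Samples sonicated 10 min, shaken 8 h at room temperature, re-sonicated and centrifuged at 13000 rpm for 15 min. Supernatant recentrifuged and analysed by LC-MS, with concentrations quantified against a 3–5 point calibration curve.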

EGFR = biological target: T1, EGFR (Homo sapiens, UniProt P00533); assay: Kinase inhibitory activity, Mobility Shift Assay (EGFR); type: biochemical
T1 construct: purchased Carna 08-115
How it was run: (§1)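 Each kinase pre-incubated 10 min at room temperature, then FAM-labelled peptide with MgCl2 and ATP added; reaction at 28 °C for kinase-dependent times before stop. Substrate conversion read by mobility shift; IC50 from a four-parameter fit of % inhibition against log concentration.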

melanin = assay: Compound binding to melanin; type: in vitro ADME; conditions: cuttlefish (Sepia officinalis), melanin suspension (1 mg/mL), percentage of free drug (not bound to melanin), 2 µM compound, melanin 1 mg/mL in PBS pH 7.4, 37°C
How it was run: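 Compound at 2 µM final incubated with 1 mg/mL Sepia melanin in PBS pH 7.4, 37°C, 2 hours with shaking; blank in PBS with 0.1% BSA. Supernatant concentration by LC-MS/MS. Fb = 100 − (Ctest/Ccontrol) × 100%.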

VEGFR1 = biological target: T2, VEGFR1 (Homo sapiens, UniProt P17948); assay: Kinase inhibitory activity, Mobility Shift Assay (VEGFR1); type: biochemical
T2 construct: purchased Invitrogen PR6731B
T2 sequence (P17948 27-1338): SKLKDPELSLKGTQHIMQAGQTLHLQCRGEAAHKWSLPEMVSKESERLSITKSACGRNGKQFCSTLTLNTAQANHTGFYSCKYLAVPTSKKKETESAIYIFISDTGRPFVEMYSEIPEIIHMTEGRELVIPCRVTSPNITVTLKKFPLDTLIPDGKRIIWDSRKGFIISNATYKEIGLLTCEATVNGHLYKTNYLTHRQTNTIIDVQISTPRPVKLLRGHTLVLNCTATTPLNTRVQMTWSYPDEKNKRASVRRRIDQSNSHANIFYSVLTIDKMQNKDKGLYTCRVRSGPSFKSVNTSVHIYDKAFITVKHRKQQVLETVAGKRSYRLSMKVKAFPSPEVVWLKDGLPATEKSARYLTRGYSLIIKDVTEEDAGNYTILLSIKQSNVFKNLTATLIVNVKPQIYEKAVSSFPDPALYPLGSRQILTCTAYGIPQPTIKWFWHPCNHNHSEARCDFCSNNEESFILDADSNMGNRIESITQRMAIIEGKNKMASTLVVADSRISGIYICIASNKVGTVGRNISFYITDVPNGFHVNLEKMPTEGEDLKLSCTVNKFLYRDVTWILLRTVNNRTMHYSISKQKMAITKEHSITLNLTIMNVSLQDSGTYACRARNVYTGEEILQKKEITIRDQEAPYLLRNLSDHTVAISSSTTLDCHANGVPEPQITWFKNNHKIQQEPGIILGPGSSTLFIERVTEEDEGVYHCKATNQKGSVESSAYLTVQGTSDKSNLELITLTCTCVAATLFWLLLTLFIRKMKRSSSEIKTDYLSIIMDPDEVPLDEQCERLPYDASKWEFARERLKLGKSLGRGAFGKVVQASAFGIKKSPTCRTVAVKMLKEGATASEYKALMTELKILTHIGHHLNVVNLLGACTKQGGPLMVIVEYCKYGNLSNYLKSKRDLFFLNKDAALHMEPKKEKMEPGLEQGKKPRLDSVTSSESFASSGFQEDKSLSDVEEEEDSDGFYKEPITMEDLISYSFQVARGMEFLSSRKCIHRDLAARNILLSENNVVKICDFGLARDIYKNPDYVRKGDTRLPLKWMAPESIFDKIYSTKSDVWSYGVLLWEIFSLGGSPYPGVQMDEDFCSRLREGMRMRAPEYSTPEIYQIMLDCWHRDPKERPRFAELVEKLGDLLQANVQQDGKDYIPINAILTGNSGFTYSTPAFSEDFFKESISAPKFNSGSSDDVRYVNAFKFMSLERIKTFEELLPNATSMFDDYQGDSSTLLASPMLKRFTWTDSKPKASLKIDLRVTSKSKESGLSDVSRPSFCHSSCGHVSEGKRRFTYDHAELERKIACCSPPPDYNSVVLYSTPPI
Procedure: (§2) Assay for Inhibitory Activity of Compounds Against VEGFR and EGFR Kinases
(§3) This assay directly monitors the inhibitory activity of compounds on kinase phosphorylation by measuring non-phosphorylated and phosphorylated substrates in the kinase reaction using Mobility Shift Assays/IMAP™ analysis. Table 2. Reagents and Instruments
(§4) Kinase and DTT were added to 1X kinase buffer to form a 2.5X kinase solution; 10 µL of the 2.5X kinase solution was transferred to a 384-well reaction plate, and 1X kinase buffer was added to the negative control wells. The plate was incubated at room temperature for 10 minutes; FAM-labeled peptide, MgCl2, ATP, and other reagents were added to 1X kinase buffer to form a 2.5X substrate solution; 10 µL of the above 2.5X substrate solution was transferred to the 384-well reaction plate; the plate was incubated at 28°C for varying times, and then 25 µL of stop solution was added to the 384-well reaction plate to terminate the reaction. Conversion rate data were read on a CaliperEZ Reader II. […] IC50 values were fitted using XLFit excel add-in version 5.4.0.8. Y = Bottom + (Top−Bottom)/(1 + […]) [formula]
(§5) X is the log value of compound concentration, Y is the inhibition rate (% inhibition).

VEGFR2 = biological target: T3, VEGFR2 (Homo sapiens, UniProt P35968); assay: Kinase inhibitory activity, Mobility Shift Assay (VEGFR2); type: biochemical
T3 construct: purchased Carna 08-191
T3 sequence (P35968 20-1356): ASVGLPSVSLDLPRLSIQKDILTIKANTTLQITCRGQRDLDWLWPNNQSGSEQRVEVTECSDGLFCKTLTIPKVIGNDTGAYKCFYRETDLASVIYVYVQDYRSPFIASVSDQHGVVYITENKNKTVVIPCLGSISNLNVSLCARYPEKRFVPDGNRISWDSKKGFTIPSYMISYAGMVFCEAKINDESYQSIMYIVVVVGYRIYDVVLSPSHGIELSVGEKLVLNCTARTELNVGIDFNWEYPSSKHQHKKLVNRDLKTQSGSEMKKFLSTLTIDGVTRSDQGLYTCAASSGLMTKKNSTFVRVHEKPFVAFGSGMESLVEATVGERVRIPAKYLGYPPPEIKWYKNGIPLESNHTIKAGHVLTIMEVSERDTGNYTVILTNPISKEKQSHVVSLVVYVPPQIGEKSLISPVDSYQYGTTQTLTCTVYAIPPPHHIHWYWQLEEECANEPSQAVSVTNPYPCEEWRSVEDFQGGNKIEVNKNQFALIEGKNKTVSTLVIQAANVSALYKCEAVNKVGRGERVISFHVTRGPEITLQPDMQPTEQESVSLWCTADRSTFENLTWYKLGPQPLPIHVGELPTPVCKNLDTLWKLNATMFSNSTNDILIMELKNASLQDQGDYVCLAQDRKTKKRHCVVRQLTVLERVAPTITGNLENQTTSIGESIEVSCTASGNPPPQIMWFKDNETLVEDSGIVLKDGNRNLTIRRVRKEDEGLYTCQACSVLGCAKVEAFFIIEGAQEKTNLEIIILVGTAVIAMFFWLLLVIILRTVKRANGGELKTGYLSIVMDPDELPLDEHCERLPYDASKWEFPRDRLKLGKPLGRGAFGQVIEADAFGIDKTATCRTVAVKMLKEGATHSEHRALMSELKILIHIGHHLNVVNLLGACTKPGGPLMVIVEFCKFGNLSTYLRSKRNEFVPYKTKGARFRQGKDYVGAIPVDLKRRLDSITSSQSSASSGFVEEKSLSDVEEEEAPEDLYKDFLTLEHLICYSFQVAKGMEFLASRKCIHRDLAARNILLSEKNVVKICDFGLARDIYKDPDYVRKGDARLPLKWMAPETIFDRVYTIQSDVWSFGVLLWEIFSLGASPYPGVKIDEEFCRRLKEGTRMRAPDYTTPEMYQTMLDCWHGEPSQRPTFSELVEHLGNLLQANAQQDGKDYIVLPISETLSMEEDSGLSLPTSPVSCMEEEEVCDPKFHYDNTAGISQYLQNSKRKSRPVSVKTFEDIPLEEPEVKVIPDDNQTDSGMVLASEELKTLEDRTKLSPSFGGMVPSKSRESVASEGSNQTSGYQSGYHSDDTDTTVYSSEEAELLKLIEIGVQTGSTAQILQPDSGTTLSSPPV
How it was run: as §1

VEGFR3 = biological target: T4, VEGFR3 (Homo sapiens, UniProt P35916); assay: Kinase inhibitory activity, Mobility Shift Assay (VEGFR3); type: biochemical
T4 construct: purchased Invitrogen PV4129
T4 sequence (P35916 25-1363): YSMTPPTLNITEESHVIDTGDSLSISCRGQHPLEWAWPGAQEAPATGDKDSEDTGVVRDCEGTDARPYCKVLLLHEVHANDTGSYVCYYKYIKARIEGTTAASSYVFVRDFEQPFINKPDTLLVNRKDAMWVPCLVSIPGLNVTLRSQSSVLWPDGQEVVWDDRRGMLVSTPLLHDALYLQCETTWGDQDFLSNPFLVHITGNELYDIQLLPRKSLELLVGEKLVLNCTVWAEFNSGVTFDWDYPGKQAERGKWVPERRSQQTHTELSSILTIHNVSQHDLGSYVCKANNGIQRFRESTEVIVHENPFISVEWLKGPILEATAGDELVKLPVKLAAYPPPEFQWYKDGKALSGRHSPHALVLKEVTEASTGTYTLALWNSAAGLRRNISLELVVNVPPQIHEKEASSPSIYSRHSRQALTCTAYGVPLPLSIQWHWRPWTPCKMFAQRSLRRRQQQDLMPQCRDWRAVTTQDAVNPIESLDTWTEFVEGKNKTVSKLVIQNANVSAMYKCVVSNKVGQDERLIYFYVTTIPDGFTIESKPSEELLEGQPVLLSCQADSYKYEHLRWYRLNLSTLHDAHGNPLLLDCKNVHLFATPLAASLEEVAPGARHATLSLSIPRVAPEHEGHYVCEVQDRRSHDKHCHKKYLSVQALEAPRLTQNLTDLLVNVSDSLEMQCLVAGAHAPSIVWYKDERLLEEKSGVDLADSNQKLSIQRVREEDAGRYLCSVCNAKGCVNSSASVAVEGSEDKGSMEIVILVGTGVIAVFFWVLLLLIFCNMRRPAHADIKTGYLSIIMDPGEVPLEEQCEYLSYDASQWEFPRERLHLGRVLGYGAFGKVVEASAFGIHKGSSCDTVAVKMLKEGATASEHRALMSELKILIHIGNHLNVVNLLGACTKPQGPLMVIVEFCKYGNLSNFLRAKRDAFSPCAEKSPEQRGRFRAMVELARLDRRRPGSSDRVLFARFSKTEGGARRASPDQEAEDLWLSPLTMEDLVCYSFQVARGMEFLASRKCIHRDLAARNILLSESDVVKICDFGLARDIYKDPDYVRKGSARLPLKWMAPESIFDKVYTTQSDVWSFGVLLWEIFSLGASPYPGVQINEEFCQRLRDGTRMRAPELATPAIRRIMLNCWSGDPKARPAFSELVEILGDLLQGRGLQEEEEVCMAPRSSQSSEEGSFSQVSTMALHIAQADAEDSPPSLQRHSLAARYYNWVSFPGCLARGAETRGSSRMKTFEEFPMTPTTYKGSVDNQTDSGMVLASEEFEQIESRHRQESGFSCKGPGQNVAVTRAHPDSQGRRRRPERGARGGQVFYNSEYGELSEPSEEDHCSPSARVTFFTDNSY
Procedure: as §2, §3, §4, §5

[2] = biological target: T5, VEGFR2 autophosphorylation (pVEGFR2) in HUVEC cells (Homo sapiens, UniProt P35968); assay: Inhibition of VEGF-induced VEGFR2 phosphorylation in HUVEC cells (ELISA); type: cell-based; conditions: 50 ng/mL human VEGF, compound 1 hour
T5 construct: endogenous in cells; host or cells: HUVEC
T5 sequence (P35968 20-1356): as the sequence (P35968 20-1356) above
Text: Assay for Compound Inhibition of VEGFR2 Phosphorylation in HUVEC Cells
VEGF is a potent growth factor that promotes angiogenesis and vascular permeability. Vascular endothelial growth factor receptor 2 (VEGFR2) is the primary receptor for VEGF-induced endothelial cell signaling. Upon ligand binding, VEGFR2 undergoes autophosphorylation and is activated. The primary function from VEGFR2 signaling is to induce blood vessel formation during development and after tissue injury, and to bypass blocked vessels. Pathologically, VEGF and VEGFR2 are involved in tumor angiogenesis and vascular leakage. They are considered major players in many different cancers and ocular diseases accompanied by pathological neovascularization. This assay uses ELISA to measure the compound's ability to inhibit VEGF-induced VEGFR2 autophosphorylation (pVEGFR2) in HUVEC cells. Table 7. Reagents and Instruments
Before cell seeding, cells reached 60%-80% confluency in cell culture flasks. The cell suspension was diluted with pre-warmed complete medium to 4.5×10^6 cells/mL. 80 microliters of cell suspension was added to all wells of a 96-well cell plate (Corning-3599); incubated overnight at 37°C and 5% CO2. Compound powder was dissolved in DMSO to 10 mM and stored in a nitrogen cabinet. Compound dilution master plate: In a 96-well V-bottom plate (Axygen- WIPP02280), reference compound Ponatinib or test compound concentrations were added, starting from 5 mM (5 microliters of 10 mM compound solution plus 5 microliters DMSO) with 3-fold serial dilutions for a total of 8 concentration points. […] 20 microliters of diluted compound was transferred from the intermediate plate to the cell plate. The cell plate was then incubated at 37°C and 5% CO2 for 1 hour. […] It was gently shaken for 30 seconds, and the absorbance was measured within 30 minutes using a SpectraMax® 340 PC 384 Absorbance Microplate Reader, reading the optical density value at 450 nm. […]
All other values are expressed as a percentage of these controls (inhibition rate). […]

SMILES	solubility at 8 h [1]	IC50 (EGFR)	fraction unbound at 2 h, 2 µM (melanin)	IC50 (VEGFR1)	IC50 (VEGFR2)	IC50 (VEGFR3)	IC50 [2]
CNC(=O)c1ccccc1Sc1ccc2c(/C=C/c3ccc(OCC4CCCN4C)cn3)n[nH]c2c1 (centres unmarked) [Compound I-2, N-methyl-2-((3-((E)-2-(5-((1-methylpyrrolidin-2-yl)methoxy)pyridin-2-yl)ethenyl)-1H-indazol-6-yl)thio)benzamide]	28.8 µg/mL (≈ 57.6 µM)	6000 to 60000 nM	0.01 to 0.05	≤ 1 nM	≤ 1 nM	1 to 10 nM	
CNC(=O)c1ccccc1Sc1ccc2c(/C=C/c3ccc(OCC4CCNC4)cn3)n[nH]c2c1 (centres unmarked) [Compound I-7]	294 µg/mL (≈ 605 µM)	6000 to 60000 nM	> 0.05	≤ 1 nM	1 to 10 nM	1 to 10 nM	
CNC(=O)c1ccccc1Sc1ccc2c(C#Cc3cc(OCCN4CCCC4)ccn3)n[nH]c2c1 [Compound I-23]	859 µg/mL (≈ 1730 µM)		0.01 to 0.05			> 100 nM	
CNC(=O)c1ccccc1Sc1ccc2c(/C=C/c3ccccn3)ncn2c1 [Compound I-26, N-methyl-2-({1-[(E)-2-(pyridin-2-yl)ethenyl]imidazo[1,5-a]pyridin-6-yl}thio)benzamide]	142 µg/mL (≈ 367 µM)	> 60000 nM	0.01 to 0.05	> 100 nM	> 100 nM	> 100 nM	
CNC(=O)c1ccccc1Sc1ccn2c(/C=C/c3ccccn3)ncc2c1 [Compound I-27, N-methyl-2-({3-[(E)-2-(pyridin-2-yl)ethenyl]imidazo[1,5-a]pyridin-7-yl}thio)benzamide]		6000 to 60000 nM	0.01 to 0.05	> 100 nM	> 100 nM	> 100 nM	
O=C(O)c1ccccc1Sc1ccn2c(/C=C/c3ccccn3)ncc2c1 [Compound I-28, 2-({3-[(E)-2-(pyridin-2-yl)ethenyl]imidazo[1,5-a]pyridin-7-yl}thio)benzoic acid]		≤ 600 nM	> 0.05	> 100 nM	> 100 nM	> 100 nM	
CNC(=O)c1ccccc1Sc1ccc2c(cnn2-c2ccc(OCCN3CCCC3)cn2)c1 [Compound I-29, N-methyl-2-[(1-{5-[2-(pyrrolidin-1-yl)ethoxy]pyridin-2-yl}-1H-indazol-5-yl)sulfanyl]benzamide]		> 60000 nM		> 100 nM	> 100 nM	> 100 nM	
CNC(=O)c1ccccc1Sc1ccc2c(Nc3ccc(OCCN4CCCC4)cn3)n[nH]c2c1 [Compound I-30, N-methyl-2-((3-((5-(2-(pyrrolidin-1-yl)ethoxy)pyridin-2-yl)amino)-1H-indazol-6-yl)thio)benzamide]				> 100 nM	> 100 nM	> 100 nM	
CNC(=O)c1ccccc1Sc1ccc2c(NC(=O)NCCN3CCN(C)CC3)n[nH]c2c1 [Compound I-31]	542 µg/mL (≈ 1160 µM)	> 60000 nM	0.01 to 0.05	> 100 nM	> 100 nM	> 100 nM	
CNC(=O)c1ccccc1Sc1ccc2c(/C=C/c3ccc(OC[C@H]4CCN(C)C4)cn3)n[nH]c2c1 [Compound I-37]		6000 to 60000 nM	0.01 to 0.05	≤ 1 nM	≤ 1 nM	1 to 10 nM	
CCNC(=O)c1cc(F)ccc1Sc1ccc2c(/C=C/c3ccc(CN(CC)CC)cn3)n[nH]c2c1 [Compound I-88]	546 µg/mL (≈ 1080 µM)	6000 to 60000 nM	> 0.05		1 to 10 nM		≤ 1 nM
O=C(NC1CC1)c1ccccc1Sc1ccc2c(/C=C/c3cccc(CCCN4CCCC4)n3)n[nH]c2c1 [Compound I-121]					≤ 1 nM	≤ 1 nM	

Now from value to compound:

solubility at 8 h [1]	IC50 (EGFR)	fraction unbound at 2 h, 2 µM (melanin)	IC50 (VEGFR1)	IC50 (VEGFR2)	IC50 (VEGFR3)	IC50 [2]	SMILES
14.2 µg/mL (≈ 28.4 µM)	6000 to 60000 nM	> 0.05	≤ 1 nM	≤ 1 nM	≤ 1 nM		CNC(=O)c1ccccc1Sc1ccc2c(/C=C/c3ccc(OCC4CCN(C)C4)cn3)n[nH]c2c1 (centres unmarked) [Compound I-1]
0.5 µg/mL (≈ 0.97 µM)		0.01 to 0.05	≤ 1 nM		≤ 1 nM		CNC(=O)c1ccccc1Sc1ccc2c(/C=C/c3ccc(OCCN4CCOCC4)cn3)n[nH]c2c1 [Compound I-3, N-methyl-2-((3-((E)-2-(5-(2-(morpholin-4-yl)ethoxy)pyridin-2-yl)ethenyl)-1H-indazol-6-yl)thio)benzamide]
413 µg/mL (≈ 781 µM)		> 0.05	≤ 1 nM	≤ 1 nM	≤ 1 nM		CNC(=O)c1ccccc1Sc1ccc2c(/C=C/c3ccc(OCCN4CCN(C)CC4)cn3)n[nH]c2c1 [Compound I-4]
177 µg/mL (≈ 335 µM)		0.01 to 0.05	≤ 1 nM	≤ 1 nM	≤ 1 nM		CNC(=O)c1ccccc1Sc1ccc2c(/C=C/c3ccc(OCCC4CCN(C)CC4)cn3)n[nH]c2c1 [Compound I-5]
					≤ 1 nM		CNC(=O)c1ccccc1Sc1ccc2c(/C=C/c3ccc(O)cn3)n[nH]c2c1 [Compound I-10, 2-({3-[(E)-2-(5-hydroxypyridin-2-yl)ethenyl]-1H-indazol-6-yl}thio)-N-methylbenzamide]
		0.01 to 0.05			≤ 1 nM		CNC(=O)c1ccccc1Sc1ccc2c(/C=C/c3ccn(CCN4CCCC4)n3)n[nH]c2c1 [Compound I-13]
		0.01 to 0.05	≤ 1 nM	≤ 1 nM	≤ 1 nM		CN1CCN(c2ccc(/C=C/c3n[nH]c4cc(Sc5ccccc5C(=O)NC5CC5)ccc34)nc2)CC1 [Compound I-38, N-cyclopropyl-2-({3-[(E)-2-[5-(4-methylpiperazin-1-yl)pyridin-2-yl]ethenyl]-1H-indazol-6-yl}thio)benzamide]
